Test results reported in patent US20080292580A1, “Treatment of Inflammatory Diseases” (UNIVERSITY COLLEGE LONDON HOSPITALS NHS FOUNDATION, priority 2004, published 2008).

Tested on: normal mice
Assay: Toxic effects of PEG-saline infusion in normal mice
Settings: mouse, in vivo
Procedure: In this example, the toxic effects of high molecular weight polyethylene glycol at high concentrations were compared to the effects of low molecular weight polyethylene glycol at even higher concentrations.
Normal mice, which were not subjected to zymozan or lipopolysaccharide injections, were infused (25 ml/kg) with either PEG-200-saline solution at a PEG-200 concentration of 100 mg/ml or PEG-4000-saline solution at a PEG-4000 concentration of 30 mg/ml.

In the case of polyethylene glycol [PEG 200-saline], the “survival of normal mice” value is reported as “survived”.
